Experimental data taken from patent US10544148B2, “Pesticidally active tetracyclic heterocyclic derivatives with sulphur containing substituents” (Syngenta Participations AG, priority 2014, dated 2020).

Assays:
Type in all cases: in vivo
[1] = tested on: Diabrotica balteata (Corn Root Worm); experiment: Example B2: Diabrotica balteata, sprayed maize sprouts, L2 larvae; conditions: 96 h, application rate of 200 ppm, 4 days after infestation
Protocol: Example B2: Diabrotica balteata (Corn Root Worm)
Maize sprouts, placed on an agar layer in 24-well microtiter plates were treated with aqueous test solutions prepared from 10′000 ppm DMSO stock solutions by spraying. After drying, the plates were infested with L2 larvae (6 to 10 per well). The samples were assessed for mortality and growth inhibition in comparison to untreated samples 4 days after infestation.

[2] = tested on: Frankliniella occidentalis (Western Flower Thrips); experiment: Example B4: Frankliniella occidentalis, sprayed sunflower leaf discs, mixed ages; conditions: foliar, 168 h, application rate of 200 ppm, population of mixed ages, 7 days after infestation
Protocol: Example B4: Frankliniella occidentalis (Western Flower Thrips)
(§1) Sunflower leaf discs were placed on agar in 24-well microtiter plates and sprayed with aqueous test solutions prepared from 10′000 DMSO stock solutions. After drying the leaf discs were infested with a Frankliniella population of mixed ages. The samples were assessed for mortality 7 days after infestation.

[3] = tested on: Spodoptera littoralis (Egyptian Cotton Leaf Worm); experiment: Example B7: Spodoptera littoralis, sprayed cotton leaf discs, L1 larvae; conditions: foliar, 72 h, application rate of 200 ppm, 3 days after infestation, read-out: control (at least one of mortality, anti-feedant effect, and growth inhibition)
Protocol: Example B7: Spodoptera littoralis (Egyptian Cotton Leaf Worm)
Cotton leaf discs were placed on agar in 24-well microtiter plates and sprayed with aqueous test solutions prepared from 10′000 ppm DMSO stock solutions. After drying the leaf discs were infested with five L1 larvae. The samples were assessed for mortality, anti-feedant effect, and growth inhibition in comparison to untreated samples 3 days after infestation. Control of Spodoptera littoralis by a test sample is when at least one of mortality, anti-feedant effect, and growth inhibition is higher than the untreated sample.

[4] = tested on: Plutella xylostella (Diamond Back Moth); experiment: Example B6: Plutella xylostella, treated artificial diet, L2 larvae; conditions: 120 h, application rate of 200 ppm, 5 days after infestation, read-out: effect in at least one of the two categories (mortality or growth inhibition)
Protocol: Example B6: Plutella xylostella (Diamond Back Moth)
24-well microtiter plates with artificial diet were treated with aqueous test solutions prepared from 10′000 ppm DMSO stock solutions by pipetting. After drying, the plates were infested with L2 larvae (10 to 15 per well). The samples were assessed for mortality and growth inhibition in comparison to untreated samples 5 days after infestation.

[5] = tested on: Euschistus heros (Neotropical Brown Stink Bug); experiment: Example B3: Euschistus heros, sprayed soybean leaf, N-2 nymphs; conditions: 120 h, application rate of 200 ppm, 5 days after infestation, read-out: effect in at least one of the two categories (mortality or growth inhibition)
Protocol: Example B3: Euschistus heros (Neotropical Brown Stink Bug)
Soybean leaf on agar in 24-well microtiter plates were sprayed with aqueous test solutions prepared from 10′000 ppm DMSO stock solutions. After drying the leaf were infested with N-2 nymphs. The samples were assessed for growth inhibition in comparison to untreated samples 5 days after infestation.

[6] = tested on: Myzus persicae (Green Peach Aphid); experiment: Example B5: Myzus persicae, sprayed sunflower leaf discs, mixed ages; conditions: foliar, 144 h, application rate of 200 ppm, aphid population of mixed ages, 6 days after infestation
Protocol: Example B5: Myzus persicae (Green Peach Aphid)
Sunflower leaf discs were placed on agar in a 24-well microtiter plate and sprayed with aqueous test solutions prepared from 10′000 ppm DMSO stock solutions. After drying, the leaf discs were infested with an aphid population of mixed ages. The samples were assessed for mortality 6 days after infestation.

[7] = tested on: Spodoptera littoralis (Egyptian Cotton Leaf Worm); experiment: Example B8: Spodoptera littoralis, systemic test, compound in agar taken up by lettuce roots; conditions: 144 h, test rate of 12.5 ppm, systemic via lettuce roots, 6 days after infestation, read-out: effect in at least one of the three categories (mortality, anti-feedancy, or growth inhibition)
Text: Example B8: Spodoptera littoralis (Egyptian Cotton Leaf Worm)
Test compounds were applied by pipette from 10′000 ppm DMSO stock solutions into 24-well plates and mixed with agar. Lettuce seeds were placed on the agar and the multi well plate was closed by another plate which contains also agar. After 7 days the roots have absorbed the compound and the lettuce has grown into the lid plate. The lettuce leafs were now cut off into the lid plate. Spodoptera eggs were pipetted through a plastic stencil on a humid gel blotting paper and the plate closed with it. The samples were assessed for mortality, anti-feedant effect and growth inhibition in comparison to untreated samples 6 days after infestation.

[8] = tested on: Thrips tabaci (Onion Thrips); experiment: Example B10: Thrips tabaci, sprayed sunflower leaf discs, mixed ages; conditions: foliar, 144 h, application rate of 200 ppm, thrips population of mixed ages, 6 days after infestation
Protocol: Example B10: Thrips tabaci (Onion Thrips)
as §1, with “10′000 ppm” for “10′000”, “thrips” for “Frankliniella”, “6” for “7”

[9] = tested on: Bemisia tabaci (Cotton White fly); experiment: Example B1: Bemisia tabaci, sprayed cotton leaf discs, adult mortality; conditions: foliar, 144 h, application rate of 200 ppm, adult white flies, 6 days after incubation
Protocol: Example B1: Bemisia tabaci (Cotton White fly)
Cotton leaf discs were placed on agar in 24-well microtiter plates and sprayed with aqueous test solutions prepared from 10′000 ppm DMSO stock solutions. After drying the leaf discs were infested with adult white flies. The samples were checked for mortality 6 days after incubation.

[10] = tested on: Tetranychus urticae (Two-Spotted Spider Mite); experiment: Example B9: Tetranychus urticae, sprayed bean leaf discs, mixed population; conditions: foliar, 192 h
Protocol: Example B9: Tetranychus urticae (Two-Spotted Spider Mite)
Bean leaf discs on agar in 24-well microtiter plates were sprayed with aqueous test solutions prepared from 10′000 ppm DMSO stock solutions. After drying the leaf discs were infested with a mite population of mixed ages. The samples were assessed for mortality on mixed population (mobile stages) 8 days after infestation.

CCS(=O)(=O)c1cc(-c2ccc(C(F)(F)F)cc2)cnc1-c1nc2cc(C(F)(F)F)nnc2n1C [P3]
≥ 80%: mortality at 200 ppm [1] | mortality at 200 ppm [2] | mortality at 200 ppm [3] | percent effect (mortality or growth inhibition) at 200 ppm [4] | percent effect (mortality or growth inhibition) at 200 ppm [5] | mortality at 200 ppm [6]

CCS(=O)(=O)c1cc(-c2cc(F)cc(F)c2)cnc1-c1nc2cc(C(F)(F)F)nnc2n1C [P1, 6-[5-(3,5-difluorophenyl)-3-ethylsulfonyl-2-pyridyl]-7-methyl-3-(trifluoromethyl)imidazo[4,5-c]pyridazine]
≥ 80%: mortality at 200 ppm [1] | mortality at 200 ppm [2] | percent control (mortality, anti-feedancy or growth inhibition) at 12.5 ppm [7] | mortality at 200 ppm [8] | mortality at 200 ppm [3] | percent effect (mortality or growth inhibition) at 200 ppm [4] | percent effect (mortality or growth inhibition) at 200 ppm [5] | mortality at 200 ppm [9] | mortality at 200 ppm [6]

CCSc1cc(-c2ccc(C(F)(F)F)cc2)ccc1-c1nc2cc(C(F)(F)F)nnc2n1C [P4, 6-[2-ethylsulfanyl-4-[4-(trifluoromethyl)phenyl]phenyl]-7-methyl-3-(trifluoromethyl)imidazo[4,5-c]pyridazine]
≥ 80%: mortality at 200 ppm [1] | mortality at 200 ppm [3] | percent effect (mortality or growth inhibition) at 200 ppm [4]

CCS(=O)(=O)c1cc(-n2ccc(C(F)(F)F)n2)cnc1-c1nc2cc(C(F)(F)F)nnc2n1C [P2, 6-[3-ethylsulfonyl-5-[3-(trifluoromethyl)pyrazol-1-yl]-2-pyridyl]-7-methyl-3-(trifluoromethyl)imidazo[4,5-c]pyridazine]
≥ 80%: mortality at 200 ppm [1] | mortality at 200 ppm [8] | mortality at 200 ppm [3] | percent effect (mortality or growth inhibition) at 200 ppm [4] | percent effect (mortality or growth inhibition) at 200 ppm [5] | mortality at 200 ppm [9] | mortality at 200 ppm [6]

CCS(=O)(=O)c1cc(-c2ccc(C(F)(F)F)cc2)ccc1-c1nc2cc(C(F)(F)F)nnc2n1C [P5]
≥ 80%: mortality at 200 ppm [1] | mortality at 200 ppm [10] | mortality at 200 ppm [3] | percent effect (mortality or growth inhibition) at 200 ppm [4]
